# Entries after “also recorded” stand apart in the source; their conditions may differ.
# How the values were obtained:
# [1] = system: Escherichia coli; assay: Antibiotic combination growth assay (384-well checkerboard, OD600)
# [2] = system: M. tuberculosis; settings: de Carvalho et al. (2011); cited from earlier work
# [3] = system: MRSA; settings: Rajamuthiah et al. (2014, 2015); cited from earlier work
# [4] = system: P. aeruginosa; settings: Imperi et al. (2013), FIG. 2A there; cited from earlier work
# [5] = system: Pseudomonas aeruginosa; assay: Antibiotic combination growth assay (384-well checkerboard, OD600)
# [6] = system: Acinetobacter baumannii; settings: Rajamuthiah et al. (2015), compound alone; cited from earlier work
# [7] = system: Pseudomonas aeruginosa; settings: Rajamuthiah et al. (2015), compound alone; cited from earlier work
# [8] = system: Mycobacterium tuberculosis; settings: cited from earlier work
# [9] = system: macrophages; settings: cited from earlier work
# [10] = system: E. coli strain 7KOΔtolC:roGFP; assay: Real-time measurement of intrabacterial redox potential (roGFP); settings: niclosamide alone in strain with in-frame deletion of tolC; FIG. 59
# Description: (§1) Cells were fixed with N-ethylmaleimide at various time points post niclosamide incubation, and then passed through a flow cytometry system. The ImageStream recorded each individual cell and all images were processed automatically.
# In vivo analysis of the intrabacterial redox potential was performed at 30° C. in a Synergy H1 Multimode plate reader (BioTek) with excitation measured at 405 and 480 nm and emission measured at 510 nm. Log phase bacterial cultures of 7KO:roGFP or 7KOΔtolC:roGFP were resuspended in 0.9% saline at OD 1.0, and 100 μL aliquots were loaded in individual wells of a black, clear-bottom 96-well plate. Background signals from the non-fluorescent (i.e., without pRSETB-RoGFP2) corresponding strain were obtained in the same experiment. Fluorescence signals were followed for 160-180 min, and the resulting 405/480 ratio signals were calculated. […]
# Samples were analyzed by the AMNIS ImageStream as previously described (van der Heijden et al. (2015) Proc Natl Acad Sci USA 112, 560-565). […] The data files were further analyzed using IDEAS software, version 6.0.129.0, which is supplied by AMNIS. Bacterial cells were selected based on fluorescence at 660 nm. […]
# In vivo analysis of the intrabacterial redox potential was done at 30° C. in a Synergy H1 Multimode plate reader (BioTek) with excitation at 405 and 480 nm while emission was measured at 510 nm. […]
# [11] = system: Klebsiella pneumoniae; assay: Antibiotic combination growth assay (384-well checkerboard, OD600); settings: in conjunction with a polymyxin (polymyxin B or polymyxin E (colistin)); antibiotic-resistant and laboratory strains; FIGS. 21-28
# [12] = system: Enterobacter cloacae; assay: as above; settings: in conjunction with a polymyxin (polymyxin B or polymyxin E (colistin)); subsp. cloacae ATCC 13047; FIGS. 29-32
# [13] = system: Enterobacter aerogenes; settings: Rajamuthiah et al. (2015), compound alone; cited from earlier work
# [14] = system: Klebsiella pneumoniae; settings: Rajamuthiah et al. (2015), compound alone; cited from earlier work
# [15] = system: Acinetobacter baumannii; assay: Antibiotic combination growth assay (384-well checkerboard, OD600); settings: in conjunction with a polymyxin (polymyxin B or polymyxin E (colistin)); ATCC type strain 19606; FIGS. 37-40
# [16] = system: Enterococcus faecium; settings: Rajamuthiah et al. (2015); cited from earlier work
# [17] = system: quorum sensing system in Pseudomonas aeruginosa; settings: among FDA-approved drugs tested, Imperi et al. (2013); cited from earlier work
# [18] = system: Salmonella enterica; assay: Antibiotic combination growth assay (384-well checkerboard, OD600); format: cell-based; settings: in conjunction with a polymyxin (polymyxin B or polymyxin E (colistin)); Serovar Typhimurium (SL1344); FIGS. 33-36
# [19] = system: Gram negative bacteria; settings: in combination with an efflux pump inhibitor (e.g. TolC efflux pump inhibitor); PCT/NZ2015/050192; cited from earlier work
# [20] = system: methicillin-resistant Staphylococcus aureus (MRSA); settings: Lau et al. (2015), under the assay conditions used; cited from earlier work
# [21] = system: E. coli strain 7KO:roGFP; assay: Real-time measurement of intrabacterial redox potential (roGFP)
# Description: as §1
# In vivo analysis of the intrabacterial redox potential was performed at 30° C. in a Synergy H1 Multimode plate reader (BioTek) with excitation measured at 405 and 480 nm and emission measured at 510 nm. Log phase bacterial cultures of 7KO:roGFP or 7KOΔtolC:roGFP were resuspended in 0.9% saline at OD 1.0, and 100 μL aliquots were loaded in individual wells of a black, clear-bottom 96-well plate. Background signals from the non-fluorescent (i.e., without pRSETB-RoGFP2) corresponding strain were obtained in the same experiment. Fluorescence signals were followed for 160-180 min, and the resulting 405/480 ratio signals were calculated. […] Reduced and oxidized controls were obtained within each experiment using a final concentration of 10 mM H2O2 or 1 mM DTT respectively.
# Samples were analyzed by the AMNIS ImageStream as previously described (van der Heijden et al. (2015) Proc Natl Acad Sci USA 112, 560-565). The laser intensities for 405, 488, 658, and 785 nm were 100, 120, 20, and 3.8, respectively. The data files were further analyzed using IDEAS software, version 6.0.129.0, which is supplied by AMNIS. Bacterial cells were selected based on fluorescence at 660 nm. Every image of an infected cell was then selected by the program based on fluorescent intensity at 660 nm. Based on this selection, a mask was created that was used for analysis of the 405/480 nm ratio. The resulting 405/480 ratio signals were plotted in a histogram. Reduced and oxidized controls were obtained within each experiment, and all values were normalized to oxidized and reduced ratio values.
# In vivo analysis of the intrabacterial redox potential was done at 30° C. in a Synergy H1 Multimode plate reader (BioTek) with excitation at 405 and 480 nm while emission was measured at 510 nm. Log phase bacterial cultures were resuspended in 0.9% saline at OD 1.0, and 200 μL per well were loaded in a black, clear-bottom 96-well plate. Background signals from the nonfluorescent corresponding strain were obtained in the same experiment.
compound,measurement,setting,value
"O=[N+]([O-])c1ccc(O)c([N+](=O)[O-])c1 [2,4-dinitrophenol]",synergistic effect in combination with colistin,"[1]; with colistin, E. coli MG1655, FIGS. 45, 46, 53-58",only weak synergistic effect
"CC(=O)Oc1ccccc1C(=O)Nc1ncc([N+](=O)[O-])s1 [nitazoxanide, 2-acetyloxy-N-(5-nitro 2-thiazolyl)benzamide]",uncoupling of the membrane potential,[2],uncoupled the membrane potential
"Cc1cc(C(C#N)c2ccc(Cl)cc2)c(Cl)cc1NC(=O)c1cc(I)cc(I)c1O (stereo not drawn) [closantel, N-[5-Chloro-4-[(4-chlorophenyl)-cyanomethyl]-2-methylphenyl]-2-hydroxy-3,5-diiodobenzamide]",toxicity / activity against MRSA,[3],active
"O=C(Nc1ccc([N+](=O)[O-])cc1Cl)c1cc(Cl)ccc1O [niclosamide, N-(2′-chloro-4′-nitrophenyl)-5-chlorosalicylamide]",inhibition of growth,[4],failed to inhibit the growth
same,growth inhibition effect of the combination,"[5]; in conjunction with a polymyxin (polymyxin B or polymyxin E (colistin)), antibiotic-resistant and laboratory strains, FIGS. 13-20",synergistic growth inhibition effect
same,inhibition of growth,[6],neither niclosamide nor oxyclozanide were active
same,inhibition of growth,[7],neither niclosamide nor oxyclozanide were active
same,MIC,[8]; Sun and Zhang (1999),0.5 to 1.0 µg/mL
same,activity against non-replicating M. tuberculosis,[8]; grown in low oxygen conditions,active
same,toxicity against macrophages,[9],did observe toxicity
same,uncoupling of the membrane potential,[2],uncoupled the membrane potential
same,growth inhibition effect of the combination,"[1]; in conjunction with a polymyxin (polymyxin B or polymyxin E (colistin)), antibiotic-resistant and laboratory strains, FIGS. 1-12",synergistic growth inhibition effect
same,intracellular redox stress (405/480 nm ratio),[10],experienced increasing redox stress; also recorded: irreversible increase in intracellular redox stress
same,growth inhibition effect of the combination,[11],synergistic growth inhibition effect
same,growth inhibition effect of the combination,[12],synergistic growth inhibition effect
same,inhibition of growth,[13],neither niclosamide nor oxyclozanide were active
same,inhibition of growth,[14],neither niclosamide nor oxyclozanide were active
same,growth inhibition effect of the combination,[15],synergistic growth inhibition effect
same,toxicity to Enterococcus faecium,[16],directly toxic
same,toxicity / activity against MRSA,[3],directly toxic
same,anti-quorum sensing activity,[17],highest anti-quorum sensing activity
same,growth inhibition effect of the combination,[18],synergistic growth inhibition effect
same,direct toxicity to Gram negative bacteria,[19],directly toxic
same,minimum inhibitory concentration,[20],sub-micromolar
same,intracellular redox stress (405/480 nm ratio),"[21]; 1 μM niclosamide in combination with 0.5 μM colistin, FIG. 60 C",irreversible increase in intracellular redox stress
same,intracellular redox stress (405/480 nm ratio),"[21]; 1 μM niclosamide in combination with 0.5 μM polymyxin B, FIG. 60 D",irreversible increase in intracellular redox stress
same,intracellular redox stress (405/480 nm ratio),"[21]; 1 μM niclosamide in combination with 25 μM PAβN (TolC efflux pump inhibitor), FIG. 60 B",irreversible increase in intracellular redox stress
same,intracellular redox stress (405/480 nm ratio),"[21]; niclosamide alone, FIG. 59",did not experience significant redox stress
Gramicidin,growth inhibition effect of the combination,"[5]; gramicidin with niclosamide, antibiotic-resistant clinical isolate (NZ isolate AR 00/537), FIGS. 43-44",synergistic growth inhibition effect
same,growth inhibition effect of the combination,"[1]; gramicidin with niclosamide, E. coli laboratory strain W3110, FIGS. 41-42",synergistic growth inhibition effect
"O=C(Nc1cc(Cl)cc(Cl)c1O)c1c(O)c(Cl)cc(Cl)c1Cl [oxyclozanide, 2,3,5-trichloro-N-(3,5-dichloro-2-hydroxyphenyl)-6-hydroxybenzamide]",inhibition of growth,[6],neither niclosamide nor oxyclozanide were active
same,inhibition of growth,[7],neither niclosamide nor oxyclozanide were active
same,inhibition of growth,[13],neither niclosamide nor oxyclozanide were active
same,inhibition of growth,[14],neither niclosamide nor oxyclozanide were active
same,toxicity to Enterococcus faecium,[16],directly toxic
same,toxicity / activity against MRSA,[3],directly toxic
